34 compounds from ChEMBL document CHEMBL1157586 (Bioorg Med Chem, 2010) can be followed below.

One data set deals with A2780. The experiment in a line: Antiproliferative activity against human A2780 cells after 72 hrs by CellTiter-Glo luminescence assay. The note with it: A2780, 72 h. (ATP-based viability assays read luminescence as a measure of living cells.)
Data set [1] can be described thus: Solubility at pH 7. Format: physicochemical. As to conditions: buffer.
Data set [2] concerns the target Cyclin-dependent kinase 2/cyclin A (Homo sapiens, UniProt P24941). The experiment in a line: Inhibition of human CDK2/cyclin A expressed in Escherichia coli BL21 by scintillation proximity assay. On the technique in general: Scintillation proximity formats need no separation of bound from free tracer.

Values after ≈ are worked out from the molar mass of the structure shown.

One may read the IC50 as the concentration that inhibits the measured activity by half. Higher therefore signals a need for much substance. In general, solubility refers to the concentration that dissolves in the medium under given conditions. The low end stands for little dissolved substance, the high end for much dissolved substance. On to `CCN1CCC(C(=O)N2Cc3c(NC(=O)CC(C)C)n[nH]c3C2(C)C)CC1`, for which the IC50 amounted to 410 nM with A2780 and 14 nM in data set [2]. Besides, the solubility in data set [1] was greater than 225 µM.

Consider `CC(C)(C)C(=O)N1Cc2c(NC(=O)c3ccc(F)cc3)n[nH]c2C1(C)C`, for which the IC50 with A2780 was 270 nM. The compound also registered a solubility in data set [1] of 235 µM (≈ 84.2 µg/mL).

`CN1CCC(C(=O)N2Cc3c(NC(=O)c4cccs4)n[nH]c3C2(C)C)CC1`: the IC50 in the data set on A2780 stood at 30 nM; in data set [2], 10 nM. Also, the solubility in data set [1] came to 155 µM (≈ 60.1 µg/mL).

On to `CN1CCC(C(=O)N2Cc3c(NC(=O)c4ccncc4)n[nH]c3C2(C)C)CC1`, for which the figures for the IC50 (in the data set on A2780; in data set [2]) were 500 nM and 25 nM, respectively. For the same compound, in data set [1], the solubility was greater than 225 µM.

As for `CN1CCC(C(=O)N2Cc3c(NC(=O)c4ccc5ccccc5c4)n[nH]c3C2(C)C)CC1`, the results for the half-inhibitory concentration (IC50) (in the data set with A2780; in data set [2]) were 270 nM and 27 nM, respectively. Also, the solubility in data set [1] was determined as 219 µM (≈ 94.5 µg/mL).

Turning to `CCCNC(=O)Nc1n[nH]c2c1CN(C(=O)C1CCN(C)CC1)C2(C)C`, the IC50 in the data set on A2780 stood at 650 nM; in data set [2], 11 nM. This compound also returned a solubility in data set [1] greater than 225 µM.

`CN1CCN(C(=O)N2Cc3c(NC(=O)c4ccc(F)cc4)n[nH]c3C2(C)C)CC1`: the IC50 in the data set with A2780 is 180 nM; in data set [2] it was 46 nM. In data set [1], this compound registered a solubility greater than 225 µM.

Take `CN1CCC(C(=O)N2Cc3c(NC(=O)c4cccc(F)c4)n[nH]c3C2(C)C)CC1`: the IC50 was found to be 200 nM in the data set on A2780 and 14 nM in data set [2]. This compound yielded a solubility in data set [1] greater than 225 µM.

On to `CC1(C)c2[nH]nc(NC(=O)c3ccc(F)cc3)c2CN1C(=O)C1CCNCC1`, for which the figures for the half-maximal inhibitory concentration (IC50) (in the data set with A2780; in data set [2]) were 650 nM and 30 nM, respectively. This compound also returned a solubility in data set [1] of 204 µM (≈ 78.6 µg/mL).

Turning to `CC1(C)c2[nH]nc(NC(=O)c3ccc(F)cc3)c2CN1C(=O)N1CCN(CCO)CC1`, the IC50 was greater than 5000 nM with A2780 and 60 nM in data set [2]. In data set [1], this compound gave a solubility greater than 225 µM.

`CC(C)(C)C(=O)N1Cc2c(NC(=O)c3cccnc3)n[nH]c2C1(C)C`: the results for the IC50 (in the data set with A2780; in data set [2]) were 690 nM and 50 nM, respectively. The compound further had a solubility in data set [1] of 207 µM (≈ 70.7 µg/mL).

Consider `CC(=O)N1CCC(C(=O)N2Cc3c(NC(=O)c4ccc(F)cc4)n[nH]c3C2(C)C)CC1`, for which the figures for the IC50 (in the data set with A2780; in data set [2]) were greater than 10000 nM and 4800 nM, respectively. In addition, the solubility in data set [1] amounted to 204 µM (≈ 87.2 µg/mL).

On to `CC(C)(C)C(=O)N1Cc2c(NC(=O)c3ccncc3)n[nH]c2C1(C)C`, for which the concentration for half-maximal inhibition (IC50) amounted to 110 nM in the data set with A2780 and 49 nM in data set [2]. This compound also displayed a solubility in data set [1] of 205 µM (≈ 70 µg/mL).

As for `CC(C)(C)C(=O)N1Cc2c(NC(=O)C3CCNCC3)n[nH]c2C1(C)C`, the values for the half-maximal inhibitory concentration (IC50) (with A2780; in data set [2]) were 650 nM and 169 nM, respectively. Further, in data set [1], the solubility is greater than 225 µM.

As for `CN1CCC(C(=O)N2Cc3c(NC(=O)Nc4cccc(F)c4)n[nH]c3C2(C)C)CC1`, the figures for the IC50 (in the data set on A2780; in data set [2]) were 350 nM and 10 nM, respectively. Besides, the solubility in data set [1] was greater than 225 µM.

Take `CN1CCC(C(=O)N2Cc3c(NC(=O)c4cc(F)cc(F)c4)n[nH]c3C2(C)C)CC1`: the concentration for half-maximal inhibition (IC50) with A2780 was 130 nM; in data set [2], 16 nM. Also, the solubility in data set [1] is greater than 225 µM.

In the case of `CN1CCC(C(=O)N2Cc3c(NC(=O)c4ccc(Cl)cc4)n[nH]c3C2(C)C)CC1`, the half-inhibitory concentration (IC50) with A2780 was found to be 120 nM; in data set [2] it was 15 nM. The solubility in data set [1] was greater than 225 µM.

In the case of `CC(=O)N1CCN(C(=O)N2Cc3c(NC(=O)c4ccc(F)cc4)n[nH]c3C2(C)C)CC1`, the IC50 is greater than 10000 nM in the data set with A2780 and 540 nM in data set [2]. For the same compound, the solubility in data set [1] is greater than 225 µM.

With `CCN1CCC(C(=O)N2Cc3c(NC(=O)c4ccc(F)cc4)n[nH]c3C2(C)C)CC1`, the results for the IC50 (with A2780; in data set [2]) were 290 nM and 30 nM, respectively. For the same compound, the solubility in data set [1] was greater than 225 µM.

Take `CN(C)CC(=O)Nc1n[nH]c2c1CN(C(=O)C(C)(C)C)C2(C)C`: the IC50 with A2780 came out at 580 nM; in data set [2], 77 nM. The compound further showed a solubility in data set [1] greater than 225 µM.

On to `CN1CCC(C(=O)N2Cc3c(NC(=O)c4ccc(F)c(F)c4)n[nH]c3C2(C)C)CC1`, for which the IC50 was 100 nM in the data set on A2780 and 14 nM in data set [2]. Also, in data set [1], the solubility was greater than 225 µM.

Regarding `OC[C@H]1O[C@H](OC[C@H]2O[C@@H](O[C@]3(CO)O[C@H](CO)[C@@H](O)[C@@H]3O)[C@H](O)[C@@H](O)[C@@H]2O)[C@H](O)[C@@H](O)[C@H]1O.OC[C@H]1O[C@H](OC[C@H]2O[C@H](O[C@]3(CO)O[C@H](CO)[C@@H](O)[C@@H]3O)[C@H](O)[C@@H](O)[C@@H]2O)[C@H](O)[C@@H](O)[C@H]1O`, the figures for the IC50 (in the data set with A2780; in data set [2]) were 60 nM and 16 nM, respectively. Further, the solubility in data set [1] came to 200 µM.

On to `CC1(C)c2[nH]nc(NC(=O)c3ccc(F)cc3)c2CN1C(=O)N1CCN(c2ccccc2)CC1`, for which, in data set [1], the concentration in solution (solubility) was 55 µM (≈ 25.4 µg/mL). In addition, in data set [2], the IC50 is 3500 nM.

As to `CN1CCC(C(=O)Nc2n[nH]c3c2CN(C(=O)C(C)(C)C)C3(C)C)CC1`, the results for the IC50 (in the data set with A2780; in data set [2]) were 350 nM and 214 nM, respectively. Moreover, the solubility in data set [1] is greater than 225 µM.

With `CC1(C)c2[nH]nc(NC(=O)c3ccc(F)cc3)c2CN1C(=O)C1CCN(C2CC2)CC1`, the IC50 stood at 380 nM in the data set with A2780 and 68 nM in data set [2]. Further, the solubility in data set [1] was greater than 225 µM.

For the compound `CN1CCC(C(=O)N2Cc3c(NC(=O)NCc4ccccc4)n[nH]c3C2(C)C)CC1`, the IC50 with A2780 turned out to be 2680 nM; in data set [2], 21 nM. Besides, the solubility in data set [1] was greater than 225 µM.

As for `CN1CCC(C(=O)N2Cc3c(NC(=O)c4ccsc4)n[nH]c3C2(C)C)CC1`, the IC50 was found to be 140 nM in the data set on A2780 and 5 nM in data set [2]. The compound further had a solubility in data set [1] greater than 225 µM.

Take `CN1CCC(C(=O)N2Cc3c(NC(=O)C4CCC4)n[nH]c3C2(C)C)CC1`: the IC50 was found to be 140 nM in the data set on A2780 and 9 nM in data set [2]. The compound also had a solubility in data set [1] greater than 225 µM.

Consider `CN1CCC(C(=O)N2Cc3c(NC(=O)c4ccc(C(F)(F)F)cc4)n[nH]c3C2(C)C)CC1`, for which the results for the IC50 (with A2780; in data set [2]) were 60 nM and 26 nM, respectively. Besides, the concentration in solution in data set [1] (solubility) came to 191 µM (≈ 85.9 µg/mL).

For the compound `CN1CCC(C(=O)N2Cc3c(NC(=O)C4CC4)n[nH]c3C2(C)C)CC1`, the values for the half-maximal inhibitory concentration (IC50) (in the data set on A2780; in data set [2]) were 1420 nM and 15 nM, respectively. In addition, in data set [1], the solubility was greater than 225 µM.

On to `CN1CCC(C(=O)N2Cc3c(NC(=O)c4ccccc4)n[nH]c3C2(C)C)CC1`, for which the IC50 with A2780 was found to be 160 nM; in data set [2], 23 nM. This compound displayed a solubility in data set [1] greater than 225 µM.

As to `CN1CCC(C(=O)N2Cc3c(NC(=O)c4ccco4)n[nH]c3C2(C)C)CC1`, the IC50 in the data set on A2780 is greater than 5000 nM; in data set [2] it was 33 nM. In addition, in data set [1], the solubility was greater than 225 µM.

`CC(C)CC(=O)Nc1n[nH]c2c1CN(C(=O)C1CCN(C3CC3)CC1)C2(C)C`: the figures for the IC50 (in the data set on A2780; in data set [2]) were 320 nM and 24 nM, respectively. In data set [1], this compound registered a solubility greater than 225 µM.

On to `CN1CCC(C(=O)N2Cc3c(NC(=O)c4ccc(F)cc4)n[nH]c3C2(C)C)CC1`, for which the IC50 amounted to 120 nM with A2780 and 23 nM in data set [2]. This compound had a solubility in data set [1] greater than 225 µM.
